What all share (experiment): relative viability (nuclei count vs DMSO), 5 days (fraction); higher = more cells survive
Compound in the assay “Vandetanib + AZD7762”: COc1cc2/c(=N/c3ccc(Br)cc3F)nc[nH]c2cc1OCC1CCN(C)CC1 [Vandetanib] + NC(=O)Nc1cc(-c2cccc(F)c2)sc1C(=O)N[C@H]1CCCNC1 [AZD7762] (partner 0.2 µM)
The essentials: (§1)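 Relative viability is defined as nuclei in treated wells over nuclei in vehicle wells. Duplicate plates were run and medians reported. Lung cancer cell lines in 1536-well plates were dosed by pin tool one day after seeding, with one drug or with a fixed anchor-drug dose plus five library-drug doses (not always all listed) in √10 steps, and nuclei were counted after 5 days.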

Compound in the assay “CUDC-101 + Phenformin”: C#Cc1cccc(Nc2ncnc3cc(OC)c(OCCCCCCC(=O)NO)cc23)c1 [CUDC-101] + N=C(N)NC(=N)NCCc1ccccc1 [Phenformin] (partner 250 µM)
In short, it runs like this:
as §1

Compound in the assay “Vandetanib + Pictilisib”: COc1cc2/c(=N/c3ccc(Br)cc3F)nc[nH]c2cc1OCC1CCN(C)CC1 [Vandetanib] + CS(=O)(=O)N1CCN(Cc2cc3nc(-c4cccc5[nH]ncc45)nc(N4CCOCC4)c3s2)CC1 [Pictilisib] (partner 1 µM)
In short, it runs like this: as §1

Compound in assay [1]: C1=CC=C2C(=C1)N=C(S2)C(C#N)C3=NC(=NC=C3)NCCC4=CN=CC=C4 + O=C(CCCCCCC(=O)Nc1ccccc1)NO [Vorinostat] (partner 1 µM)
In short, it runs like this:
as §1

We go through six cell lines from the supplement of paper PMC10307832.

On to NCI-H727, for which the relative viability with Vandetanib + AZD7762 (first compound 0.02 µM) was 0.482; in the assay with Vandetanib + AZD7762 (first compound 0.06325 µM), 0.489; with Vandetanib + AZD7762 (first compound 0.2 µM), 0.651; with Vandetanib + AZD7762 (first compound 0.6325 µM), 0.562; with Vandetanib + AZD7762 (first compound 2 µM), 0.635; with CUDC-101 + Phenformin (first compound 0.01 µM) it was 0.591. The relative viability with CUDC-101 + Phenformin (first compound 0.03162 µM) was determined as 0.476; in the assay with CUDC-101 + Phenformin (first compound 0.1 µM) it was 0.297; with CUDC-101 + Phenformin (first compound 0.3162 µM), 0.604; with CUDC-101 + Phenformin (first compound 1 µM), 0.362; with Vandetanib + Pictilisib (first compound 0.02 µM), 0.33; with Vandetanib + Pictilisib (first compound 0.06325 µM), 0.272. Also, the relative viability came to 0.341 with Vandetanib + Pictilisib (first compound 0.2 µM); 0.325 with Vandetanib + Pictilisib (first compound 0.6325 µM); 0.309 in the assay with Vandetanib + Pictilisib (first compound 2 µM); 1.38 in assay [1] (first compound 0.005 µM); 1.08 in assay [1] (first compound 0.01581 µM); 1.1 in assay [1] (first compound 0.05 µM). Moreover, the relative viability in assay [1] (first compound 0.1581 µM) amounted to 1.38; in assay [1] (first compound 0.5 µM), 1.37.
As for NCI-H838, the relative viability in the assay with Vandetanib + AZD7762 (first compound 0.02 µM) came to 0.902; with Vandetanib + AZD7762 (first compound 0.06325 µM) it was 0.895; in the assay with Vandetanib + AZD7762 (first compound 0.2 µM), 0.976; in the assay with Vandetanib + AZD7762 (first compound 0.6325 µM) it was 1.03; with Vandetanib + AZD7762 (first compound 2 µM), 0.894; with CUDC-101 + Phenformin (first compound 0.01 µM), 0.64. Also, the relative viability turned out to be 0.564 in the assay with CUDC-101 + Phenformin (first compound 0.03162 µM); 0.696 with CUDC-101 + Phenformin (first compound 0.1 µM); 0.712 with CUDC-101 + Phenformin (first compound 0.3162 µM); 0.404 with CUDC-101 + Phenformin (first compound 1 µM); 0.461 with Vandetanib + Pictilisib (first compound 0.02 µM); 0.357 with Vandetanib + Pictilisib (first compound 0.06325 µM). Moreover, the relative viability is 0.457 with Vandetanib + Pictilisib (first compound 0.2 µM); 0.426 in the assay with Vandetanib + Pictilisib (first compound 0.6325 µM); 0.415 in the assay with Vandetanib + Pictilisib (first compound 2 µM); 0.751 in assay [1] (first compound 0.005 µM); 0.747 in assay [1] (first compound 0.01581 µM); 0.661 in assay [1] (first compound 0.05 µM). In addition, the relative viability in assay [1] (first compound 0.1581 µM) worked out at 0.707; in assay [1] (first compound 0.5 µM), 0.681.
Turning to NCI-H1355, the relative viability came out at 0.741 with Vandetanib + AZD7762 (first compound 0.02 µM); 0.742 with Vandetanib + AZD7762 (first compound 0.06325 µM); 0.755 in the assay with Vandetanib + AZD7762 (first compound 0.2 µM); 0.66 in the assay with Vandetanib + AZD7762 (first compound 0.6325 µM); 0.653 with Vandetanib + AZD7762 (first compound 2 µM); 0.453 with CUDC-101 + Phenformin (first compound 0.01 µM). Moreover, the relative viability worked out at 0.431 in the assay with CUDC-101 + Phenformin (first compound 0.03162 µM); 0.453 with CUDC-101 + Phenformin (first compound 0.1 µM); 0.47 in the assay with CUDC-101 + Phenformin (first compound 0.3162 µM); 0.387 in the assay with CUDC-101 + Phenformin (first compound 1 µM); 0.438 in the assay with Vandetanib + Pictilisib (first compound 0.02 µM); 0.367 with Vandetanib + Pictilisib (first compound 0.06325 µM). Also, the relative viability in the assay with Vandetanib + Pictilisib (first compound 0.2 µM) was 0.425; in the assay with Vandetanib + Pictilisib (first compound 0.6325 µM) it was 0.496; with Vandetanib + Pictilisib (first compound 2 µM), 0.482; in assay [1] (first compound 0.005 µM), 0.596; in assay [1] (first compound 0.01581 µM) it was 0.625; in assay [1] (first compound 0.05 µM), 0.649. The results for the relative viability in assay [1] (first compound 0.1581 µM) and in assay [1] (first compound 0.5 µM) were 0.67 and 0.564, respectively.
Turning to NCI-H1395, the relative viability in the assay with Vandetanib + AZD7762 (first compound 0.02 µM) was 0.404; in the assay with Vandetanib + AZD7762 (first compound 0.06325 µM) it was 0.399; with Vandetanib + AZD7762 (first compound 0.2 µM), 0.427; with Vandetanib + AZD7762 (first compound 0.6325 µM), 0.418; in the assay with Vandetanib + AZD7762 (first compound 2 µM), 0.434; with CUDC-101 + Phenformin (first compound 0.01 µM), 0.495. Further, the relative viability with CUDC-101 + Phenformin (first compound 0.03162 µM) was found to be 0.435; with CUDC-101 + Phenformin (first compound 0.1 µM) it was 0.462; with CUDC-101 + Phenformin (first compound 0.3162 µM), 0.466; with CUDC-101 + Phenformin (first compound 1 µM) it was 0.456; with Vandetanib + Pictilisib (first compound 0.02 µM), 0.687; with Vandetanib + Pictilisib (first compound 0.06325 µM) it was 0.61. Further, the relative viability with Vandetanib + Pictilisib (first compound 0.2 µM) was determined as 0.656; in the assay with Vandetanib + Pictilisib (first compound 0.6325 µM), 0.697; with Vandetanib + Pictilisib (first compound 2 µM), 0.418; in assay [1] (first compound 0.005 µM), 0.556; in assay [1] (first compound 0.05 µM) it was 0.707; in assay [1] (first compound 0.1581 µM), 0.788. The relative viability in assay [1] (first compound 0.5 µM) is 0.611.
Consider NCI-H1437, for which the relative viability was 1.16 with Vandetanib + AZD7762 (first compound 0.02 µM); 1.12 in the assay with Vandetanib + AZD7762 (first compound 0.06325 µM); 1.1 with Vandetanib + AZD7762 (first compound 0.2 µM); 1.2 with Vandetanib + AZD7762 (first compound 0.6325 µM); 1.09 with Vandetanib + AZD7762 (first compound 2 µM); 0.313 in the assay with CUDC-101 + Phenformin (first compound 0.01 µM). Further, the relative viability amounted to 0.341 in the assay with CUDC-101 + Phenformin (first compound 0.03162 µM); 0.275 with CUDC-101 + Phenformin (first compound 0.1 µM); 0.275 with CUDC-101 + Phenformin (first compound 0.3162 µM); 0.392 in the assay with CUDC-101 + Phenformin (first compound 1 µM); 0.463 with Vandetanib + Pictilisib (first compound 0.02 µM); 0.419 with Vandetanib + Pictilisib (first compound 0.06325 µM). Further, the relative viability is 0.432 with Vandetanib + Pictilisib (first compound 0.2 µM); 0.357 in the assay with Vandetanib + Pictilisib (first compound 0.6325 µM); 0.481 with Vandetanib + Pictilisib (first compound 2 µM); 0.896 in assay [1] (first compound 0.005 µM); 0.871 in assay [1] (first compound 0.01581 µM); 0.813 in assay [1] (first compound 0.05 µM). The values for the relative viability in assay [1] (first compound 0.1581 µM) and in assay [1] (first compound 0.5 µM) were 0.824 and 0.755, respectively.
Regarding NCI-H1651, the relative viability with Vandetanib + AZD7762 (first compound 0.02 µM) was found to be 0.431; with Vandetanib + AZD7762 (first compound 0.06325 µM), 0.425; in the assay with Vandetanib + AZD7762 (first compound 0.2 µM) it was 0.462; with Vandetanib + AZD7762 (first compound 0.6325 µM), 0.442; with Vandetanib + AZD7762 (first compound 2 µM), 0.486; in the assay with CUDC-101 + Phenformin (first compound 0.01 µM), 0.34. Moreover, the relative viability with CUDC-101 + Phenformin (first compound 0.03162 µM) was found to be 0.352; with CUDC-101 + Phenformin (first compound 0.1 µM) it was 0.371; with CUDC-101 + Phenformin (first compound 0.3162 µM), 0.415; in the assay with CUDC-101 + Phenformin (first compound 1 µM), 0.432; in the assay with Vandetanib + Pictilisib (first compound 0.02 µM), 0.621; with Vandetanib + Pictilisib (first compound 0.06325 µM) it was 0.519. Besides, the relative viability worked out at 0.478 with Vandetanib + Pictilisib (first compound 0.2 µM); 0.528 with Vandetanib + Pictilisib (first compound 0.6325 µM); 0.374 with Vandetanib + Pictilisib (first compound 2 µM); 0.555 in assay [1] (first compound 0.005 µM); 0.538 in assay [1] (first compound 0.01581 µM); 0.572 in assay [1] (first compound 0.05 µM). Also, the results for the relative viability in assay [1] (first compound 0.1581 µM) and in assay [1] (first compound 0.5 µM) were 0.609 and 0.559, respectively.
